From PubChem BioAssay AID1919002 (Molecular Pharmacology Branch, DTP, NCI, 2023)

Test system: 743489-274-T-PDC complex spheroid growth
Assay: Anticancer human tumor 743489-274-T-PDC patient-derived renal cell carcinoma cell line growth inhibition [AhR]
Settings: for IC50: curve of first compound; for viability, T/C: stronger effect = lower value
Method in brief: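 Complex tumor spheroids co-cultured with HUVEC and human MSC stroma; AhR antagonists tested in combination with standard-of-care and investigational agents. Top concentration at or near clinical Cmax (else 10 microM), half-log dilutions; growth expressed as percent test/control.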

[1] = second compound 0.1 µM, first compound 0.0316 µM
[2] = second compound 0.1 µM, first compound 0.1 µM
[3] = second compound 0.1 µM, first compound 0.316 µM
[4] = second compound 0.1 µM, first compound 1 µM
[5] = second compound 0.1 µM, first compound 3.16 µM
[6] = second compound 0.1 µM, first compound 10 µM
[7] = second compound 0.316 µM, first compound 0.0316 µM
[8] = second compound 0.316 µM, first compound 0.1 µM
[9] = second compound 0.316 µM, first compound 0.316 µM
[10] = second compound 0.316 µM, first compound 1 µM
[11] = second compound 0.316 µM, first compound 3.16 µM
[12] = second compound 0.316 µM, first compound 10 µM
[13] = second compound 1 µM, first compound 0.0316 µM
[14] = second compound 1 µM, first compound 0.1 µM
[15] = second compound 1 µM, first compound 0.316 µM
[16] = second compound 1 µM, first compound 1 µM
[17] = second compound 1 µM, first compound 3.16 µM
[18] = second compound 1 µM, first compound 10 µM
[19] = second compound 3.16 µM, first compound 0.0316 µM
[20] = second compound 3.16 µM, first compound 0.1 µM
[21] = second compound 3.16 µM, first compound 0.316 µM
[22] = second compound 3.16 µM, first compound 1 µM
[23] = second compound 3.16 µM, first compound 3.16 µM
[24] = second compound 3.16 µM, first compound 10 µM
[25] = second compound 10 µM, first compound 0.0316 µM
[26] = second compound 10 µM, first compound 0.1 µM
[27] = second compound 10 µM, first compound 0.316 µM
[28] = second compound 10 µM, first compound 1 µM
[29] = second compound 10 µM, first compound 3.16 µM
[30] = second compound 10 µM, first compound 10 µM
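Note: spheroids exposed to agents for 7 days before readout.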
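Throughout, for viability, T/C: 100% = DMSO vehicle control wells.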

CCc1c2c(nc3ccc(O)cc13)-c1cc3c(c(=O)n1C2)COC(=O)[C@]3(O)CC + Cc1cncc(-c2nc(NCCc3c[nH]c4ccccc34)c3ncn(C(C)C)c3n2)c1
IC50 (second compound 0.1 µM): > 0.3 µM
IC50 (second compound 0.316 µM): > 0.3 µM
IC50 (second compound 1 µM): > 0.3 µM
IC50 (second compound 3.16 µM): > 0.3 µM
IC50 (second compound 10 µM): > 0.3 µM
viability, T/C (second compound 0.1 µM, first compound 0.000949 µM): 106%
viability, T/C (second compound 0.1 µM, first compound 0.003 µM): 103%
viability, T/C (second compound 0.1 µM, first compound 0.00949 µM): 97.1%
viability, T/C (second compound 0.1 µM, first compound 0.03 µM): 89.1%
viability, T/C (second compound 0.1 µM, first compound 0.0949 µM): 79.4%
viability, T/C (second compound 0.1 µM, first compound 0.3 µM): 76.6%
viability, T/C (second compound 0.316 µM, first compound 0.000949 µM): 98.8%
viability, T/C (second compound 0.316 µM, first compound 0.003 µM): 95%
viability, T/C (second compound 0.316 µM, first compound 0.00949 µM): 98.5%
viability, T/C (second compound 0.316 µM, first compound 0.03 µM): 82.2%
viability, T/C (second compound 0.316 µM, first compound 0.0949 µM): 69.5%
viability, T/C (second compound 0.316 µM, first compound 0.3 µM): 64.6%
viability, T/C (second compound 1 µM, first compound 0.000949 µM): 102%
viability, T/C (second compound 1 µM, first compound 0.003 µM): 106%
viability, T/C (second compound 1 µM, first compound 0.00949 µM): 110%
viability, T/C (second compound 1 µM, first compound 0.03 µM): 79.9%
viability, T/C (second compound 1 µM, first compound 0.0949 µM): 94.8%
viability, T/C (second compound 1 µM, first compound 0.3 µM): 66.6%
viability, T/C (second compound 3.16 µM, first compound 0.000949 µM): 113%
viability, T/C (second compound 3.16 µM, first compound 0.003 µM): 102%
viability, T/C (second compound 3.16 µM, first compound 0.00949 µM): 98.6%
viability, T/C (second compound 3.16 µM, first compound 0.03 µM): 80.7%
viability, T/C (second compound 3.16 µM, first compound 0.0949 µM): 73.1%
viability, T/C (second compound 3.16 µM, first compound 0.3 µM): 73.9%
viability, T/C (second compound 10 µM, first compound 0.000949 µM): 131%
viability, T/C (second compound 10 µM, first compound 0.003 µM): 135%
viability, T/C (second compound 10 µM, first compound 0.00949 µM): 128%
viability, T/C (second compound 10 µM, first compound 0.03 µM): 102%
viability, T/C (second compound 10 µM, first compound 0.0949 µM): 95%
viability, T/C (second compound 10 µM, first compound 0.3 µM): 68.4%

Nc1ccccc1NC(=O)c1ccc(CNC(=O)OCc2cccnc2)cc1 + Cc1cncc(-c2nc(NCCc3c[nH]c4ccccc34)c3ncn(C(C)C)c3n2)c1
IC50 (second compound 0.1 µM): 4.64 µM
IC50 (second compound 0.316 µM): 3.12 µM
IC50 (second compound 1 µM): 2.4 µM
IC50 (second compound 3.16 µM): 6.83 µM
IC50 (second compound 10 µM): 9.62 µM
viability, T/C [1]: 104%
viability, T/C [2]: 92.7%
viability, T/C [3]: 86.5%
viability, T/C [4]: 77.7%
viability, T/C [5]: 54.2%
viability, T/C [6]: 36.6%
viability, T/C [7]: 92.2%
viability, T/C [8]: 93.1%
viability, T/C [9]: 89.4%
viability, T/C [10]: 74%
viability, T/C [11]: 50.1%
viability, T/C [12]: 36.3%
viability, T/C [13]: 88.5%
viability, T/C [14]: 84.1%
viability, T/C [15]: 87.2%
viability, T/C [16]: 73.8%
viability, T/C [17]: 42.5%
viability, T/C [18]: 29.9%
viability, T/C [19]: 95.5%
viability, T/C [20]: 91.5%
viability, T/C [21]: 88.7%
viability, T/C [22]: 78.5%
viability, T/C [23]: 61.3%
viability, T/C [24]: 44.3%
viability, T/C [25]: 102%
viability, T/C [26]: 102%
viability, T/C [27]: 106%
viability, T/C [28]: 91.3%
viability, T/C [29]: 84.6%
viability, T/C [30]: 48.2%

Nc1ccn(C2OC(CO)C(O)C2(F)F)c(=O)n1 (stereo not given) + Cc1cncc(-c2nc(NCCc3c[nH]c4ccccc34)c3ncn(C(C)C)c3n2)c1
IC50 (second compound 0.1 µM): > 10 µM
IC50 (second compound 0.316 µM): > 10 µM
IC50 (second compound 1 µM): > 10 µM
IC50 (second compound 3.16 µM): > 10 µM
IC50 (second compound 10 µM): > 10 µM
viability, T/C [1]: 83.1%
viability, T/C [2]: 76.7%
viability, T/C [3]: 72.1%
viability, T/C [4]: 65.2%
viability, T/C [5]: 65.7%
viability, T/C [6]: 67.9%
viability, T/C [7]: 87.1%
viability, T/C [8]: 73.2%
viability, T/C [9]: 71.9%
viability, T/C [10]: 62.3%
viability, T/C [11]: 72.3%
viability, T/C [12]: 63.4%
viability, T/C [13]: 85.6%
viability, T/C [14]: 90.8%
viability, T/C [15]: 74.7%
viability, T/C [16]: 64.8%
viability, T/C [17]: 79.2%
viability, T/C [18]: 68.9%
viability, T/C [19]: 104%
viability, T/C [20]: 93.8%
viability, T/C [21]: 77.3%
viability, T/C [22]: 62.3%
viability, T/C [23]: 74.3%
viability, T/C [24]: 67.1%
viability, T/C [25]: 138%
viability, T/C [26]: 100%
viability, T/C [27]: 74.2%
viability, T/C [28]: 84.2%
viability, T/C [29]: 78.5%
viability, T/C [30]: 96.8%

O=C(c1cc(Cc2n[nH]c(=O)c3ccccc23)ccc1F)N1CCN(C(=O)C2CC2)CC1 + Cc1cncc(-c2nc(NCCc3c[nH]c4ccccc34)c3ncn(C(C)C)c3n2)c1
IC50 (second compound 0.1 µM): > 10 µM
IC50 (second compound 0.316 µM): > 10 µM
IC50 (second compound 1 µM): > 10 µM
IC50 (second compound 3.16 µM): > 10 µM
IC50 (second compound 10 µM): > 10 µM
viability, T/C [1]: 91.6%
viability, T/C [2]: 96.4%
viability, T/C [3]: 99%
viability, T/C [4]: 88.3%
viability, T/C [5]: 86.1%
viability, T/C [6]: 85.6%
viability, T/C [7]: 87.1%
viability, T/C [8]: 84.4%
viability, T/C [9]: 94.2%
viability, T/C [10]: 86.2%
viability, T/C [11]: 82.1%
viability, T/C [12]: 88.4%
viability, T/C [13]: 98.8%
viability, T/C [14]: 99.9%
viability, T/C [15]: 94.5%
viability, T/C [16]: 93.2%
viability, T/C [17]: 89.9%
viability, T/C [18]: 85.4%
viability, T/C [19]: 93.3%
viability, T/C [20]: 102%
viability, T/C [21]: 100%
viability, T/C [22]: 90%
viability, T/C [23]: 85.7%
viability, T/C [24]: 95.1%
viability, T/C [25]: 104%
viability, T/C [26]: 102%
viability, T/C [27]: 111%
viability, T/C [28]: 102%
viability, T/C [29]: 105%
viability, T/C [30]: 103%
